Source: patent US7935708B2, “Dihydropyrazolopyrimidinone derivatives” (MSD K.K., priority 2006, dated 2011)

Experiments:
[1] = test system: Cdc2 (Cdk1) tyrosine 15 phosphorylation in NCI-H1299 cells; experiment: Cdc2 (Cdk1) tyrosine 15-phosphorylation-inhibitory effect in camptothecin-treated NCI-H1299 cells (ELISA); type: cell-based; conditions: Homo sapiens, camptothecin 200 nM 16 hours, then test compound with nocodazole 8 hours, read-out: Cdc2-Y15 Phosphorylation-Inhibitory Effect (H1299, + camptothecin) (EC50)
Excerpt: Pharmaceutical Text 2 (Method of Determining Drug Potency in Cells (Cdc2 (Cdk1) Tyrosine 15-Phosphorylation-Inhibitory Effect))
Fetal bovine serum (FBS) was obtained from Morgate; media RPMI1640 and DMEM were from Invitrogen; camptothecin was from Sigma; gemcitabine was from Nippon Eli Lilly; nocodazole and protease inhibitor cocktail were from Sigma; rabbit anti-Cdc2 antibody and mouse anti-Cdc2 antibody were from Santa Cruz Biotechnology; rabbit anti-tyrosine 15-phosphorylated Cdc2 antibody and horseradish peroxidase-labeled anti-mouse IgG antibody were from Cell Signaling Technology; sure blue reserve TMB peroxidase substrate was from Kirkegaard and Perry Laboratories.
Human non-small cell lung cancer cells (NCI-H1299) and human colon cancer cells (WiDr) were obtained from American Type Culture Collection (ATCC).
(§1) c) Method of Effect Determination:
In the method of using NCI-H1299 cells, the cells were suspended in RPMI1640 containing 10% FBS, and the cell suspension was applied to a 96-well Nunclondelta-processed plastic plate (bought from Nunc), in an amount of 2000 cells/100 μL/well, in which the cells were incubated overnight in 5% CO2-95% air at 37° C. Camptothecin was dissolved in dimethylsulfoxide (DMSO), and diluted with RPMI1640 containing 10% FBS, and then this was applied to the plate on which the cells had been previously sowed, in an amount of 50 μL/well in such a manner that the final concentration of camptothecin could be 200 nM. Then, the cells were incubated for 16 hours at 37° C. in 5% CO2-95% air. The test compound was stepwise diluted with DMSO, then diluted with 4000 nM nocodazole-containing RPMI1640 containing 10% FBS, and applied to the plate on which the camptothecin-treated cells had been sowed, in an amount of 50 μL/well. The cells were incubated for 8 hours at 37° C. in 5% CO2-95% air, then the medium was removed, and a cytolytic buffer was added to the plate in an amount of 100 μL/well, shaken at 4° C. for 2 hours, then frozen at −80° C., and melted to give a cell solution. Cdc2 and tyrosine 15-phosphorylated Cdc2 in the cell solution were determined through enzyme-linked immunosorbent assay (ELISA), and the ratio of tyrosine 15-phosphorylated Cdc2 to Cdc2 was calculated to obtain the 50% phosphorylation-inhibitory concentration of the test compound to the cells (EC50, nM). The cytolytic buffer used herein is an aqueous solution containing 20 mM Hepes (pH 7.5), 150 mM sodium chloride, 1 mM disodium ethylenediaminetetraacetate, 0.1% polyoxyethylene (10) octylphenyl ether, 1% protease inhibitor cocktail, 1 mM dithiothreitol, 2 mM sodium orthovanadate, 10 mM sodium fluoride and 10 mM glycerol diphosphate. Cdc2 was determined through ELISA as follows: A rabbit anti-Cdc2 antibody solution, which had been diluted 200-fold with 50 mM carbonate-bicarbonate buffer (pH 9.6), was applied to a 96-well maxisorpimmuno plate (bought from Nunc), in an amount of 50 μL/well, and statically kept overnight at 4° C. so as to fix the antibody on the plate. Next, this was washed three times with phosphate-buffered saline (PBS), and 5% bovine serum albumin-containing PBS (5% BSA/PBS) was added thereto in an amount of 300 μL/well, and statically kept at room temperature for 2 hours, and then again washed three times with PBS. A mouse anti-Cdc2 antibody solution that had been diluted 100-fold with 0.05% polyoxyethylene sorbitan monolaurate and 1% BSA-containing Tris-HCl-buffered saline (1% BSA/TBS-T) was added to it in an amount of 50 μL/well, and the cell solution was added thereto in an amount of 5 μL/well and statically kept overnight at 4° C. Next, this was washed three times with 0.05% polyoxyethylene sorbitan monolaurate and 0.1% BSA-containing Tris-HCl-buffered saline (0.1% BSA/TBS-T), and then a horseradish peroxidase-labeled anti-mouse IgG antibody solution that had been diluted 2000-fold with 1% BSA/TBS-T was added thereto in an amount of 70 μL/well, and statically kept at room temperature for 3 hours. […]

[2] = test system: Human colon cancer cells (WiDr); experiment: Checkpoint escape effect in gemcitabine-treated WiDr cells (phosphorylated histone H3-positive cells); type: cell-based; conditions: gemcitabine 100 nM 24 hours, then test compound with nocodazole 8 hours
Excerpt: Pharmaceutical Text 3 (Method of Determining Drug Potency in Cells (Checkpoint-Removing Effect))
Fetal bovine serum (FBS) was obtained from Morgate; DMEM was from Invitrogen; gemcitabine was from Nippon Eli Lilly; nocodazole and 4′,6-diamidino-2-phenylindole were from Sigma; rabbit anti-phosphorylated histone H3 antibody was from Upstate; and fluorescence-labeled (Alexa Fluor 488) anti-rabbit IgG antibody was from Molecular Probe.
Human colon cancer cells (WiDr) were obtained from American Type Culture Collection (ATCC).
as §1
The cells were suspended in DMEM containing 10% FBS, and the cell suspension was applied to a poly-D-lysine-coated 96-well plastic plate (bought from Becton Dickinson) in an amount of 2000 cells/100 μL/well, in which the cells were incubated overnight in 5% CO2-95% air at 37° C. Gemcitabine was dissolved in phosphate-buffered saline (PBS), and diluted with DMEM containing 10% FBS, and then this was applied to the plate on which the cells had been previously sowed, in an amount of 50 μL/well in such a manner that the final concentration of gemcitabine could be 100 nM. Then, the cells were incubated for 24 hours at 37° C. in 5% CO2-95% air. The test compound was stepwise diluted with dimethylsulfoxide, then diluted with 1200 nM nocodazole-containing DMEM containing 10% FBS, and applied to the plate on which the gemcitabine-treated cells had been sowed, in an amount of 50 μL/well. […] Next, this was washed with PBS, and a solution containing 4′,6-diamidino-2-phenylindole that had been diluted with 1% BSA/PBS to have a concentration 10 μg/mL and a fluorescence-labeled (Alexa Fluor 488) anti-rabbit IgG antibody that had been diluted 250-fold was added to it in an amount 50 μL/well, and reacted in a dark place at room temperature for 60 minutes. Finally, this was washed with PBS, and its fluorescence intensity was determined to calculate the ratio of the phosphorylated histone H3-positive cells (cells that had been in a cell division cycle through removal of checkpoint). […]

Row | EC50 [1] [nM] | EC50 [2] [nM] | Compound
1 | 61 | 268 | C=CCn1c(=O)c2cnc(Nc3ccc(N4CCN(C)CC4)c(CO)c3)nc2n1-c1ccsc1 [Example 3, 2-allyl-6-{[3-(hydroxymethyl)-4-(4-methylpiperazin-1-yl)phenyl]amino}-1-(3-thienyl)-1,2-dihydro-3H-pyrazolo[3,4-d]pyrimidin-3-one]
2 | 79 | 100 | C=CCn1c(=O)c2cnc(Nc3ccc(N4CCN(C)CC4)cc3)nc2n1-c1cccc(N2CCN(C)C2=O)n1 [Example 148, 2-allyl-1-[6-(3-methyl-2-oxoimidazolidin-1-yl)pyridin-2-yl]-6-{[4-(4-methylpiperazin-1-yl)phenyl]amino}-1,2-dihydro-3H-pyrazolo[3,4-d]pyrimidin-3-one]
